# The NIST ThermoML archive (doi:10.1016/j.jct.2014.01.023)
# Numbers after ± are expanded uncertainties.
# Conditions: Crystal; for vapor or sublimation pressure: Transpiration method
smiles,measurement,setting,value
"CN1C(=O)N(C)C(=O)C(C)(C)C1=O [1,3,5,5-tetramethylpyrimidine-2,4,6(1H,3H,5H)-trione]",vapor or sublimation pressure,323.2 K,0.00344 ± 0.00019 kPa
same,vapor or sublimation pressure,326.2 K,0.00457 ± 0.00024 kPa
same,vapor or sublimation pressure,328.2 K,0.00555 ± 0.0003 kPa
same,vapor or sublimation pressure,332.1 K,0.00801 ± 0.00043 kPa
same,vapor or sublimation pressure,334.2 K,0.0099 ± 0.00052 kPa
same,vapor or sublimation pressure,336.2 K,0.01132 ± 0.0006 kPa
same,vapor or sublimation pressure,338.2 K,0.01415 ± 0.00076 kPa
same,vapor or sublimation pressure,340.1 K,0.01647 ± 0.00087 kPa
same,vapor or sublimation pressure,342.9 K,0.02036 ± 0.0011 kPa
same,vapor or sublimation pressure,346 K,0.02803 ± 0.0015 kPa
same,vapor or sublimation pressure,347.4 K,0.03182 ± 0.0017 kPa
same,vapor or sublimation pressure,349.2 K,0.03555 ± 0.0019 kPa
same,vapor or sublimation pressure,350.1 K,0.04039 ± 0.0023 kPa
same,vapor or sublimation pressure,351 K,0.04459 ± 0.0023 kPa
same,vapor or sublimation pressure,351.1 K,0.04429 ± 0.0023 kPa
same,vapor or sublimation pressure,352.9 K,0.05014 ± 0.0026 kPa
same,vapor or sublimation pressure,355.2 K,0.05715 ± 0.003 kPa
same,vapor or sublimation pressure,356.2 K,0.06561 ± 0.0035 kPa
same,vapor or sublimation pressure,360.2 K,0.08943 ± 0.0047 kPa
same,vapor or sublimation pressure,365 K,0.135 ± 0.0071 kPa
same,vapor or sublimation pressure,367.6 K,0.168 ± 0.0088 kPa
"CN1C(=O)NC(=O)C(C)(C)C1=O [1,5,5-trimethylbarbituric acid]",vapor or sublimation pressure,360 K,0.00265 ± 0.00015 kPa
same,vapor or sublimation pressure,366.1 K,0.00471 ± 0.00026 kPa
same,vapor or sublimation pressure,366.2 K,0.00487 ± 0.00026 kPa
same,vapor or sublimation pressure,374.2 K,0.00972 ± 0.00051 kPa
same,vapor or sublimation pressure,379.6 K,0.01551 ± 0.00081 kPa
same,vapor or sublimation pressure,380.8 K,0.01685 ± 0.0009 kPa
same,vapor or sublimation pressure,382.7 K,0.02034 ± 0.0011 kPa
same,vapor or sublimation pressure,386.8 K,0.02976 ± 0.0015 kPa
same,vapor or sublimation pressure,387.5 K,0.02935 ± 0.0015 kPa
same,vapor or sublimation pressure,388.7 K,0.03375 ± 0.0019 kPa
same,vapor or sublimation pressure,389.7 K,0.03771 ± 0.002 kPa
same,vapor or sublimation pressure,392.6 K,0.04726 ± 0.0025 kPa
same,vapor or sublimation pressure,393.7 K,0.05266 ± 0.0028 kPa
same,vapor or sublimation pressure,396.7 K,0.06438 ± 0.0034 kPa
same,vapor or sublimation pressure,402.5 K,0.09884 ± 0.0052 kPa
same,vapor or sublimation pressure,406.7 K,0.1462 ± 0.0077 kPa
same,vapor or sublimation pressure,410.2 K,0.187 ± 0.0096 kPa
same,vapor or sublimation pressure,411.7 K,0.196 ± 0.01 kPa
same,vapor or sublimation pressure,414.2 K,0.2461 ± 0.013 kPa
same,vapor or sublimation pressure,419.9 K,0.3607 ± 0.019 kPa
same,vapor or sublimation pressure,427.9 K,0.6087 ± 0.031 kPa
"CC1C(=O)N(C)C(=O)N(C)C1=O [1,3,5-trimethylbarbituric acid]",vapor or sublimation pressure,322.5 K,0.00289 ± 0.00017 kPa
same,vapor or sublimation pressure,328.4 K,0.00528 ± 0.00028 kPa
same,vapor or sublimation pressure,332.6 K,0.00792 ± 0.00044 kPa
same,vapor or sublimation pressure,338.6 K,0.01482 ± 0.00079 kPa
same,vapor or sublimation pressure,343 K,0.02296 ± 0.0013 kPa
same,vapor or sublimation pressure,349.4 K,0.04451 ± 0.0024 kPa
same,vapor or sublimation pressure,354.5 K,0.06767 ± 0.0036 kPa
same,vapor or sublimation pressure,358.6 K,0.09676 ± 0.005 kPa
same,Normal melting temperature,DTA,90.50 ± 1.6 °C
